Test results as given in the Kinase Knowledgebase extract (Sharma et al. 2016).
Several values for one entry are separate records, joined by “and”; a condition that tells them apart may be missing. Equal values may be shown once.

Legend:
[1] = molecular target: EGFR (human) (UniProt P00533); details: a431
[2] = molecular target: EGFR (human) (UniProt P00533); details: dher14
[3] = molecular target: EGFR (human) (UniProt P00533); details: A431

Chain of EGFR (human) (P00533 whole entry, looked up): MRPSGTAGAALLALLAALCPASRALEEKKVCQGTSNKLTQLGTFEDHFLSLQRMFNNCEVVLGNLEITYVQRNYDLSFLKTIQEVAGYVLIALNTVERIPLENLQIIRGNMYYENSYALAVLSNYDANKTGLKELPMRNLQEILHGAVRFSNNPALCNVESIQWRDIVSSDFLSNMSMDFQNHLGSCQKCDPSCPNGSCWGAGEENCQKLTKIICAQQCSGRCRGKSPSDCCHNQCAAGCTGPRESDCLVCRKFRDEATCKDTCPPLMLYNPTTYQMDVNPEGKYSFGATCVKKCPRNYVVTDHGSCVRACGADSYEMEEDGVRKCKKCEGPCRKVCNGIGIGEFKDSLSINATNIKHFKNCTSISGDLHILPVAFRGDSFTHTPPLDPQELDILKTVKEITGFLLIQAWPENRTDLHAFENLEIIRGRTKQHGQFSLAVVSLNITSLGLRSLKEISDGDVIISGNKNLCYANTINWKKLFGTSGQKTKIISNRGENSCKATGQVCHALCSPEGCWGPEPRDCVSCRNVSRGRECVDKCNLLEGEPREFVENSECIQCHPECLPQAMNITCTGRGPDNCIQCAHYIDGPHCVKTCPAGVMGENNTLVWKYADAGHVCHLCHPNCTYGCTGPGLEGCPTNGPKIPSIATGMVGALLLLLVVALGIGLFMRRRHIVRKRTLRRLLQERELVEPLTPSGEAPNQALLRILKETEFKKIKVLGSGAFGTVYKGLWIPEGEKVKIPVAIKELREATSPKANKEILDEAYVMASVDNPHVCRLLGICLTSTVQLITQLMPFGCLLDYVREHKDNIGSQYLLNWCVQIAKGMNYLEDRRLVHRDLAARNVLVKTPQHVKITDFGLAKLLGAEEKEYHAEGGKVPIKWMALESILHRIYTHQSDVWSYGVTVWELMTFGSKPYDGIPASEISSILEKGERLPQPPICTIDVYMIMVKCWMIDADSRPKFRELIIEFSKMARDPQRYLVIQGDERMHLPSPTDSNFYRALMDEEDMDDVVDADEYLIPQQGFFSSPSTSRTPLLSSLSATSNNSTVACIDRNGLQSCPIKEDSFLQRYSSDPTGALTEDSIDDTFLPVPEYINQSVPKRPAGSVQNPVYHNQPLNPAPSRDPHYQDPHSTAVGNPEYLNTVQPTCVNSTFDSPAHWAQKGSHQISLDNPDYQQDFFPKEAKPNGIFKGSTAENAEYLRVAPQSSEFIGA

| SMILES | IC50 [1] | IC50 [2] [nM] | IC50 [3] [nM] |
| --- | --- | --- | --- |
| COc1cc2ncnc(Nc3cc(Cl)c(Cl)cc3F)c2cc1OC | 3 to 5 nM |  |  |
| C=CC(=O)Nc1ccc2ncnc(Nc3cc(Cl)c(Cl)cc3F)c2c1 | 6.7 to 20 nM |  |  |
| COCC(=O)Nc1ccc2ncnc(Nc3cc(Cl)c(Cl)cc3F)c2c1 | 1000 to 10000 nM | > 250 |  |
| COCC(=O)Nc1ccc2ncnc(Nc3cccc(I)c3)c2c1 | 1000 to 5000 nM |  |  |
| O=C(CCl)Nc1ccc2ncnc(Nc3cc(Cl)c(Cl)cc3F)c2c1 | 5 to 25 nM and 25 to 50 nM |  |  |
| C=CC(=O)Nc1cc2c(Nc3cccc(Br)c3)ncnc2cc1N1CCN(C)CC1 | 50 to 250 nM |  | 500 to 13000 |
